According to US20020198189A1, “New use” (priority 2000, published 2002):

For `CCCC1c2nc[nH]c2CCN1C(=O)OCc1ccccc1.O=C(O)C(F)(F)F` (stereo not shown), the melting point was 166 to 167 °C.
